From patent publication US3989837A, “Pharmaceutical compositions” (Chinoin Gyogyszer-es Vegyeszeti Termekek Gyara RT, priority 1972, dated 1976)
Like-named read-outs stand apart in the source and are kept apart here.

Legend:
[1] = system: writhing syndrome; assay: Writhing syndrome, comparison with Indomethacine (Table 7); type: in vivo, mouse; conditions: for Effect % average, writhing: male mice
Experimental: The tests were carried out on male mice each weighing 15 to 18 g., starved for 16 hours prior to treatment. 0.1 ml./10 g. body weight of 1% acetic acid solution was injected intraperitoneally to the animals. The sterile inflammation occurred on the action of acetic acid provoked a characteristic syndrome (writhing). The number of writhings was counted during an observation period of 20 minutes, starting 15 minutes after the administration of acetic acid. The substance to be tested was administered orally as a suspension, in a dosage of 0.1 ml./10 g. body weight 2 to 4 hours before the acetic acid injection. The average number of writhings observed for the treated animals was compared to that observed in the control group, and the percentage inhibition was calculated from the difference.

[2] = system: rats; assay: Ulcerogeneous action on rats, comparison with Indomethacine (Table 3'); conditions: for Animals having lesions on the intestines / Survivals / Ulcer number: male rats, 5 days
[3] = system: kaoline oedema; assay: Rat paw oedema, kaoline (Table 4'); type: in vivo; conditions: for Effect % (average), inhibition of kaoline oedema / Effect %, inhibition of kaoline oedema: female rats; for Effect % (average), inhibition of kaoline oedema: average of repeated tests
Experimental: (§1) Inflammatory plantar oedema was provided by the subplantar injection of 0.1 ml. of 5% kaoline or 0.5% carrageenine on female rats each weighing 110 to 130 g., starved for 24 hours. The dorsoplantar diameter of the test animals was measured with a double-armed instrument prior to the administration of the phlogistic (basic value) and at regular intervals (at 2, 3.5 and 5 hours for kaoline and at 1.5, 3 and 4.5 hours for carrageenine) after the administration of the phlogistic. […] The treatment was always carried out 1 hour before the administration of the phlogistic. The animals belonging to the control group received suspending agent only. In order to ensure a uniform hydration grade, 1 ml. of tap water was administered through a stomach tube to the animals simultaneously with the administration of the active agent. During the test period the animals were allowed to consume water ad libitum.
(§2) The effect was calculated from the difference of the increase in paw diameter observed in the treated and control groups. The daga are given as percentage efficiacy.
(§3) The significance level was examined by Student's t test. The significance levels are marked by asterisks; the values of the repeated tests are given separately.

[4] = system: mice; assay: Toxicity on mice after oral administration, single dosage (Table 1'); type: in vivo; conditions: for Perished animals/treated animals: male mice
Experimental: (§4) The tests were carried out on male mice weighing 25 to 30 g., not starved previously. The compounds were administered in a dosage of 0.2 ml. of suspension per 10 g. body weight. The individual dosages indicated in Table 1' were administered to 10 mice each. The given amount of active agent was added in a single dosage, and the animals were dept under observation for 7 days (= 168 hours). The number of deceased animals was recorded daily.
(§5) The LD50 values were calculated according to the Litchfied-Wilcoxon method, by also taking into account the number of animals perished within 168 hours from the administration.

[5] = as above; type: in vivo; conditions: mouse, in vivo, po, male mice, p.o., 168 hours
Experimental: as §4, §5

[6] = system: carrageenine oedema; assay: Rat paw oedema, carrageenine (Table 5'); type: in vivo; conditions: for Effect %, inhibition of carrageenine oedema: female rats
Experimental: as §1, §2, §3

[7] = system: cotton granuloma; assay: Cotton granuloma, comparison with Indomethacine (Table 6); type: in vivo, rat; conditions: for Effect %, cotton granuloma: male rats, 7 days
Experimental: Two cotton beads, each weighing 23 to 27 mg., were implanted under the dorsal skin of the animals in aether narcosis, under semisterile conditions, along both sides of the vertebral column. The compound under examination was administered twice a day for 7 days in oral dosages of 0.2 ml./100 g. body weight, in a suspension formed with 1% methyl cellulose. On the 8th day the animals were killed by etheral overnarcosis, the granulomes were removed, dried at 50° C for 5 hours, and then weighed. The animals belonging to the control group were treated similarly, but they received suspending agent only. The percentage efficiacy was calculated from the weight differences of the granuloma tissues observed for the treated and control groups. The significance was examined by the t test.

Compound: COc1ccc2c(c1)c(CC(=O)OCC(Cl)(Cl)Cl)c(C)n2C(=O)c1ccc(Cl)cc1 [Example 5, 1-(p-chlorobenzoyl)-2-methyl-5-methoxy-indol-3-yl-acetic-acid trichloroethyl ester]
- Effect % average, writhing ([1]; p.o. 6.8 (5) mg./kg., 2 hours): 24.8%
- Effect % average, writhing ([1]; p.o. 6.8 (5) mg./kg., 4 hours): 19.3%
- Effect % average, writhing ([1]; p.o. 17.1 (12.5) mg./kg., 2 hours): 56.1%
- Effect % average, writhing ([1]; p.o. 17.1 (12.5) mg./kg., 4 hours): 53.5%
- dosage provoking the same analgesic effect, times higher than Indomethacine ([1]; writhing, ratio refers to molar equivalents): 2.5 times
- Animals having lesions on the intestines ([2]; oral 27.3 (20) mg./kg.): 10.5%
- Survivals ([2]; oral 27.3 (20) mg./kg.): 19
- Ulcer number ([2]; oral 27.3 (20) mg./kg.): 0
- Animals having lesions on the intestines ([2]; oral 54.7 (40) mg./kg.): 80%
- Survivals ([2]; oral 54.7 (40) mg./kg.): 15
- Ulcer number ([2]; oral 54.7 (40) mg./kg.): 0.27
- frequency of occurrence of intestinal lesions compared with Indomethacine ([2]; rats, oral, fivefold dosage): doubled
- lesions on intestines compared with Indomethacine ([2]; rats, oral, fivefold dosage): far more severe
- extent of perishment, lower than that caused by Indomethacine 8 mg./kg. ([2]; rats, oral, fivefold dosage with respect to Indomethacine (8 mg./kg.)): 50%
- lesions on the mucous membrane of the stomach ([2]; rats, oral, Indomethacine 4 and 8 mg./kg., […]): slightly more severe lesions
- Effect % (average), inhibition of kaoline oedema ([3]; p.o. 13.67 (10) mg./kg., 2 hours): 10.2%
- Effect % (average), inhibition of kaoline oedema ([3]; p.o. 13.67 (10) mg./kg., 3.5 hours): 15.8%
- Effect % (average), inhibition of kaoline oedema ([3]; p.o. 13.67 (10) mg./kg., 5 hours): 18.8%
- Effect % (average), inhibition of kaoline oedema ([3]; p.o. 34.17 (25) mg./kg., 2 hours): 12.0%
- Effect % (average), inhibition of kaoline oedema ([3]; p.o. 34.17 (25) mg./kg., 3.5 hours): 22.1%
- Effect % (average), inhibition of kaoline oedema ([3]; p.o. 34.17 (25) mg./kg., 5 hours): 27.3%
- Effect %, inhibition of kaoline oedema ([3]; p.o. 68.35 (50) mg./kg., 2 hours): 21.9%
- Effect %, inhibition of kaoline oedema ([3]; p.o. 68.35 (50) mg./kg., 3.5 hours): 30.2%
- Effect %, inhibition of kaoline oedema ([3]; p.o. 68.35 (50) mg./kg., 5 hours): 33.3%
- Effect %, inhibition of kaoline oedema ([3]; p.o. 136.7 (100) mg./kg., 2 hours): 26.9%
- Effect %, inhibition of kaoline oedema ([3]; p.o. 136.7 (100) mg./kg., 3.5 hours): 41.1%
- Effect %, inhibition of kaoline oedema ([3]; p.o. 136.7 (100) mg./kg., 5 hours): 37.9%
- dosage inhibiting oedema, times higher than Indomethacine ([3]; kaoline oedema, molar equivalents compared): about 2.5 times
- antiphlogistic effect, times weaker than Indomethacine ([3]; summary of the comparison): about 2.5 times
- therapeutical width compared with Indomethacine ([4]; considering the toxicity values): far more favorable than that of Indomethacine
- Perished animals/treated animals ([4]; oral 1367 (1000) mg./kg., 24 h): 0/10
- Perished animals/treated animals ([4]; oral 1367 (1000) mg./kg., 48 h): 0/10
- Perished animals/treated animals ([4]; oral 1367 (1000) mg./kg., 72 h): 0/10
- Perished animals/treated animals ([4]; oral 1367 (1000) mg./kg., 96 h): 0/10
- Perished animals/treated animals ([4]; oral 1367 (1000) mg./kg., 120 h): 0/10
- Perished animals/treated animals ([4]; oral 1367 (1000) mg./kg., 144 h): 0/10
- Perished animals/treated animals ([4]; oral 1367 (1000) mg./kg., 168 h): 0/10
- Perished animals/treated animals ([4]; oral 2050 (1500) mg./kg., 24 h): 0/10
- Perished animals/treated animals ([4]; oral 2050 (1500) mg./kg., 48 h): 0/10
- Perished animals/treated animals ([4]; oral 2050 (1500) mg./kg., 72 h): 0/10
- Perished animals/treated animals ([4]; oral 2050 (1500) mg./kg., 96 h): 0/10
- Perished animals/treated animals ([4]; oral 2050 (1500) mg./kg., 120 h): 0/10
- Perished animals/treated animals ([4]; oral 2050 (1500) mg./kg., 144 h): 0/10
- Perished animals/treated animals ([4]; oral 2050 (1500) mg./kg., 168 h): 1/10
- Perished animals/treated animals ([4]; oral 2734 (2000) mg./kg., 24 h): 0/10
- Perished animals/treated animals ([4]; oral 2734 (2000) mg./kg., 48 h): 0/10
- Perished animals/treated animals ([4]; oral 2734 (2000) mg./kg., 72 h): 2/10
- Perished animals/treated animals ([4]; oral 2734 (2000) mg./kg., 96 h): 2/10
- Perished animals/treated animals ([4]; oral 2734 (2000) mg./kg., 120 h): 4/10
- Perished animals/treated animals ([4]; oral 2734 (2000) mg./kg., 144 h): 6/10
- Perished animals/treated animals ([4]; oral 2734 (2000) mg./kg., 168 h): 6/10
- Perished animals/treated animals ([4]; oral 3417 (2500) mg./kg., 24 h): 0/10
- Perished animals/treated animals ([4]; oral 3417 (2500) mg./kg., 48 h): 1/10
- Perished animals/treated animals ([4]; oral 3417 (2500) mg./kg., 72 h): 1/10
- Perished animals/treated animals ([4]; oral 3417 (2500) mg./kg., 96 h): 3/10
- Perished animals/treated animals ([4]; oral 3417 (2500) mg./kg., 120 h): 4/10
- Perished animals/treated animals ([4]; oral 3417 (2500) mg./kg., 144 h): 6/10
- Perished animals/treated animals ([4]; oral 3417 (2500) mg./kg., 168 h): 7/10
- Perished animals/treated animals ([4]; oral 4101 (3000) mg./kg., 24 h): 0/10
- Perished animals/treated animals ([4]; oral 4101 (3000) mg./kg., 48 h): 1/10
- Perished animals/treated animals ([4]; oral 4101 (3000) mg./kg., 72 h): 3/10
- Perished animals/treated animals ([4]; oral 4101 (3000) mg./kg., 96 h): 4/10
- Perished animals/treated animals ([4]; oral 4101 (3000) mg./kg., 120 h): 5/10
- Perished animals/treated animals ([4]; oral 4101 (3000) mg./kg., 144 h): 7/10
- Perished animals/treated animals ([4]; oral 4101 (3000) mg./kg., 168 h): 7/10
- LD50 at 168 h ([5]; equivalent amounts of Indomethacine, read-out: LD50 as equivalent amount of Indomethacine): 1570 mg/kg
- LD50 at 168 h ([5]; read-out: LD50): 2150 mg/kg
- dosage inhibiting oedema, times higher than Indomethacine ([6]; carrageenine oedema, molar equivalents compared): about 2.5 times
- Effect %, inhibition of carrageenine oedema ([6]; p.o. 13.67 (10) mg./kg., 1.5 hours): 9.8%
- Effect %, inhibition of carrageenine oedema ([6]; p.o. 13.67 (10) mg./kg., 3 hours): 15.8%
- Effect %, inhibition of carrageenine oedema ([6]; p.o. 13.67 (10) mg./kg., 4.5 hours): 16.0%
- Effect %, inhibition of carrageenine oedema ([6]; p.o. 34.17 (25) mg./kg., 1.5 hours): 10.8%
- Effect %, inhibition of carrageenine oedema ([6]; p.o. 34.17 (25) mg./kg., 3 hours): 18.3%
- Effect %, inhibition of carrageenine oedema ([6]; p.o. 34.17 (25) mg./kg., 4.5 hours): 21.9%
- Effect %, inhibition of carrageenine oedema ([6]; p.o. 68.35 (50) mg./kg., 1.5 hours): 14.8%
- Effect %, inhibition of carrageenine oedema ([6]; p.o. 68.35 (50) mg./kg., 3 hours): 19.9%
- Effect %, inhibition of carrageenine oedema ([6]; p.o. 68.35 (50) mg./kg., 4.5 hours): 28.5%
- effect on cotton granuloma compared with Indomethacine ([7]; even when added in a twofold dosage): lower than that of Indomethacine
- Effect %, cotton granuloma ([7]; oral daily 5.5 (4) mg./kg., p 0.01): 19.5%
- Effect %, cotton granuloma ([7]; oral daily 11 (8) mg./kg., p 0.001): 24.8%
